# Source: the supplement of paper PMC10307832
# Compound: N#CC1(c2ccc(NC(=O)c3cccnc3NCc3ccncc3)cc2)CCCC1 [Apatinib] + O=C(CCCCCCC(=O)Nc1ccccc1)NO [Vorinostat] (partner 1 µM)
# Test: relative viability (nuclei count vs DMSO), 5 days (fraction); higher = more cells survive
# Conditions: first compound 0.08 µM
# Method in brief: (§1)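 Lung cancer cell lines were pin-tool dosed in 1536-well plates on the day after seeding, with either a lone drug or a fixed anchor-drug dose plus five library-drug doses (not always all listed) in √10 steps. Nuclei were counted on 4× images after 5 days. Relative viability is the ratio of treated-well to vehicle-well nuclei counts, with each value a median of duplicate plates.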
row,Cell Line,relative viability
1,HCC-78,0.524
2,HCC-366,0.437
3,HCC-827,0.859
4,HOP-62,0.613
5,LC-2-ad,0.735
6,LCLC-97TM1,0.911
7,LCLC-103H,0.812
8,LOU-NH91,0.974
9,LU99A,0.514
10,LXF-289,0.813
11,NCI-H23,0.696
12,NCI-H322M,0.846
13,NCI-H441,0.891
14,NCI-H520,0.77
15,NCI-H596,0.703

# Same assay, conditions: first compound 0.253 µM
row,Cell Line,relative viability
1,HCC-78,0.396
2,HCC-366,0.386
3,HCC-827,0.777
4,HOP-62,0.679
5,LC-2-ad,0.753
6,LCLC-97TM1,0.758
7,LCLC-103H,0.773
8,LOU-NH91,0.97
9,LU99A,0.589
10,LXF-289,0.746
11,NCI-H23,0.793
12,NCI-H322M,0.846
13,NCI-H441,0.673
14,NCI-H520,0.736
15,NCI-H596,0.58

# Same assay, conditions: first compound 0.8 µM
row,Cell Line,relative viability
1,HCC-78,0.427
2,HCC-366,0.329
3,HCC-827,0.817
4,HOP-62,0.567
5,LC-2-ad,0.721
6,LCLC-97TM1,0.695
7,LCLC-103H,0.772
8,LOU-NH91,0.82
9,LU99A,0.467
10,LXF-289,0.765
11,NCI-H23,0.568
12,NCI-H322M,0.885
13,NCI-H441,0.827
14,NCI-H520,0.708
15,NCI-H596,0.672

# Same assay, conditions: first compound 2.53 µM
row,Cell Line,relative viability
1,HCC-78,0.402
2,HCC-366,0.205
3,HCC-827,0.654
4,HOP-62,0.476
5,LC-2-ad,0.633
6,LCLC-97TM1,0.577
7,LCLC-103H,0.683
8,LOU-NH91,0.816
9,LU99A,0.43
10,LXF-289,0.637
11,NCI-H23,0.491
12,NCI-H322M,0.897
13,NCI-H441,0.809
14,NCI-H520,0.672
15,NCI-H596,0.492

# Same assay, conditions: first compound 8 µM
row,Cell Line,relative viability
1,HCC-78,0.374
2,HCC-366,0.193
3,HCC-827,0.855
4,HOP-62,0.323
5,LC-2-ad,0.665
6,LCLC-97TM1,0.337
7,LCLC-103H,0.709
8,LOU-NH91,0.82
9,LU99A,0.354
10,LXF-289,0.671
11,NCI-H23,0.524
12,NCI-H322M,0.885
13,NCI-H441,0.574
14,NCI-H520,0.452
15,NCI-H596,0.546

# Compound: N#CC1(c2ccc(NC(=O)c3cccnc3NCc3ccncc3)cc2)CCCC1 [Apatinib] + CC(C)C[C@H](NC(=O)[C@H](Cc1ccccc1)NC(=O)c1cnccn1)B(O)O [Bortezomib] (partner 0.002 µM)
# Test: as above
# Conditions: first compound 0.08 µM
# Method in brief: as §1
row,Cell Line,relative viability
1,HCC-78,0.539
2,HCC-366,1.16
3,HCC-827,0.977
4,HOP-62,1.06
5,LC-2-ad,0.937
6,LCLC-97TM1,0.774
7,LCLC-103H,1.16
8,LOU-NH91,0.466
9,LU99A,1.21
10,LXF-289,1.02
11,NCI-H23,0.91
12,NCI-H322M,1.23
13,NCI-H441,0.615
14,NCI-H520,0.83
15,NCI-H596,1.2

# Same assay, conditions: first compound 0.253 µM
row,Cell Line,relative viability
1,HCC-78,0.525
2,HCC-366,1.1
3,HCC-827,0.907
4,LC-2-ad,1.15
5,LCLC-97TM1,0.775
6,LCLC-103H,1.03
7,LOU-NH91,0.492
8,LU99A,1.22
9,LXF-289,0.983
10,NCI-H23,1.01
11,NCI-H322M,1.19
12,NCI-H441,0.481
13,NCI-H520,0.492
14,NCI-H596,1

# Same assay, conditions: first compound 0.8 µM
row,Cell Line,relative viability
1,HCC-78,0.618
2,HCC-366,0.948
3,HCC-827,1.07
4,HOP-62,0.62
5,LC-2-ad,1.22
6,LCLC-97TM1,0.508
7,LCLC-103H,0.998
8,LOU-NH91,0.543
9,LU99A,1.2
10,LXF-289,0.984
11,NCI-H23,0.908
12,NCI-H322M,1.05
13,NCI-H441,0.592
14,NCI-H520,0.451
15,NCI-H596,1.17

# Same assay, conditions: first compound 2.53 µM
row,Cell Line,relative viability
1,HCC-78,0.505
2,HCC-366,0.926
3,HCC-827,1.05
4,HOP-62,0.672
5,LC-2-ad,0.946
6,LCLC-97TM1,0.344
7,LCLC-103H,0.992
8,LOU-NH91,0.443
9,LU99A,0.943
10,LXF-289,0.936
11,NCI-H23,0.902
12,NCI-H322M,1.24
13,NCI-H441,0.322
14,NCI-H520,0.585
15,NCI-H596,0.929

# Same assay, conditions: first compound 8 µM
row,Cell Line,relative viability
1,HCC-78,0.476
2,HCC-366,1.09
3,HCC-827,1.09
4,HOP-62,0.738
5,LC-2-ad,0.832
6,LCLC-97TM1,0.574
7,LCLC-103H,1.09
8,LOU-NH91,0.476
9,LU99A,0.976
10,LXF-289,0.96
11,NCI-H23,0.805
12,NCI-H322M,1.25
13,NCI-H441,0.217
